We go through 1 substance from US20160095837A1, “MODULATION OF MITOCHONDRIAL CALCIUM UNIPORTER ACTIVITY FOR TREATING AND PREVENTING ARRHYTHMIAS” (priority 2014, published 2016).

Holding throughout (type): cell-based, mouse
In one experiment the test system is NADH. Put plainly: NADH autofluorescence in SAN cells. The following applies: Ru360 dialysis. Here is the method:
(§1) SAN cells were placed in Tyrode's solution at 36±0.5° C. and were identified by their characteristic morphology (spindle or spider shape) and spontaneous activity. SAN cells were identified electrophysiologically by spontaneous action potentials with a slow depolarizing phase 4 and the hyperpolarization-activated current (If).^27 Spontaneous action potentials, If and ICa were recorded using the perforated (amphotericin B or β-escin in studies requiring dialysis of Ru360 and/or ATP) patch-clamp technique^28 on single SAN cells at 36±0.5° C. in Tyrode's solution. Intracellular Ca^2+ transients were recorded from single SAN cells using Fura-2 AM excited at 340 nm and 380 nm and emitted and 510 nm. Endogenous NADH from single SAN cells was measured by excitation at 350 nm and recording emitted light at 460 nm.^29 Mitochondrial Ca^2+ was measured at 535 nm from mt-pericam expressing SAN cells exited at 415 nm^20. Mitochondrial Ca^2+ entry was measured in cell membrane permeabilized cardiomyocytes isolated from DN-MCU transgenic, wild type mice and from HEK293 cells using Calcium green-5N^30.
The autofluorescence of endogenous NADH, which derives primarily from mitochondria,^29,35 was measured as described^29. NADH was excited at 350 nm (AT350/SOX, Chroma) and fluorescence was recorded at 460 nm (ET460/50m and T400LP, Chroma). […]

Experiment [1] deals with sinoatrial nodal (SAN) pacemaker cells. The experiment can be described thus: Spontaneous action potential rate of single SAN cells (perforated patch clamp). The procedure:
as §1
Isolation of single SAN cells from mice was performed according to previously published methods^22, 27, 31 with minor modifications. Mice were administered an intraperitoneal injection of avertin (20 μl/g) and monitored until unresponsive. The heart was excised and placed into Tyrode's solution (35° C.), consisting of (mM) 140 NaCl, 5.0 HEPES, 5.5 Glucose, 5.4 KCl, 1.8 CaCl2, and 1.0 MgCl2. The pH was adjusted to 7.4 with NaOH. […] The SAN was cut into smaller pieces, which were transferred and rinsed in a solution containing (mM) 140 NaCl, 5.0 HEPES, 5.5 Glucose, 5.4 KCl, 0.2 CaCl2, 0.5 MgCl2, 1.2 KH2PO4, 50 Taurine and 1 mg/ml bovine serum albumin (BSA), with pH adjusted to 7.4 using NaOH. SAN tissue pieces were digested in 5 ml of solution containing collagenase type I, elastase (Worthington), and protease type XIV (Sigma) for 20-30 min. The tissue was transferred to 10 ml of Kraft-Bruhe (KB) medium containing (mM) 100 potassium glutamate, 5.0 HEPES, 20 Glucose, 25 KCl, 10 potassium aspartate, 2.0 MgSO4, 10 KH2PO4, 20 taurine, 5 creatine, 0.5 EGTA, and 1 mg/ml BSA, with pH adjusted to 7.2 using KOH. The tissue was agitated using a glass pipette for 10 min. The cells were stored at 4° C. and studied within 7 hours.
SAN cells were placed in Tyrode's solution at 36±0.5° C. SAN cells were identified by their characteristic morphology (spindle or spider shape) and spontaneous activity in all single cell experiments. SAN cells were also identified electrophysiologically by typical spontaneous action potentials with slow depolarizing phase 4 and the hyperpolarization-activated current (If) in electrophysiological experiments.
Spontaneous action potentials (APs) and If were recorded using the perforated (amphotericin B or β-escin) patch-clamp technique^28 on single SAN cell at 36±0.5° C. in Tyrode's solution (0.5 mM BaCl2 was added to the bath solution when recording If^32). The pipette was filled with (mM) 130 potassium aspartate, 10 NaCl, 10 HEPES, 0.04 CaCl2, amphotericin B 240 μg/ml with pH adjusted to 7.2 with KOH. SAN cells with stable APs lasting at least 5 min were included in the experiments. β-escin 25 μM was substituted for amphotericin B to allow dialysis of Ru360 or ATP. When recording If, membrane potential was held at −35 mV, the voltage steps were applied for 5 s ranging from −125 mV to −45 mV in 10 mV increments or vice versa.^33 ICa was measured using the perforated patch technique at […] as previously described.^22 ICa was confirmed by its sensitivity to Nifedipine 5 μM. Depolarizing voltage pulses (300 ms in duration) to various potentials (−60 mV to 60 mV in 10 mV step) were applied after 50 ms at −40 mV to inactivate INa from a holding potential of −70 mV. […]
For orientation: In patch-clamp work, channel activity is measured electrically.

Experiment [2] has as its system SERCA2a activity ([Ca2+]cyto decline). Put plainly: Cytoplasmic Ca2+ transient decay (Fura-2 AM) in SAN cells. The following applies: Ru360 dialysis. Here is the method: as §1
Cytosolic Ca^2+ levels were recorded from Fura-2-loaded cells, excited at wavelengths of 340 and 380 nm, and imaged with a 510 nm long-pass filter. Single isolated SAN cells were loaded with 0.1 μM Fura-2 AM for 20 minutes, and then perfused for 20 minutes to de-esterfy the Fura-2 AM in normal Tyrode's solution. After placement on a recording chamber, the cells were perfused in normal Tyrode's solution at 36° C.±0.5. Spindle-shaped, spontaneously beating cells were chosen for experiments. Action potential recording was performed simultaneously.

Regarding (μ)[(HCO2)(NH3)4Ru]2OCl3) [Ru360], the “ISO-induced increase in NADH fluorescence” value in the experiment with NADH is listed as “prevented”. In experiment [1] (dialysis, no ISO), the “Basal SAN cell rates” value is listed as “neither Ru360 nor ATP had any affect”. Further, the “SAN cell action potential frequency increases to ISO” value in experiment [1] (freshly isolated SAN cells dialyzed with Ru360 5 μM, vs cells without Ru360) is listed as “significantly reduced”. The “Decline in [Ca2+]cyto after ISO” value in experiment [2] (ISO stimulated) is “slowed”. In experiment [2] (no ISO), the “Decline in [Ca2+]cyto in the absence of ISO stimulation” value was “did not slow”.
